Measurements published in PMC3597730, “Novel Phenolic Inhibitors of Small/Intermediate-Conductance Ca^2+-Activated K^+ Channels, KCa3.1 and KCa2.3” (PLoS ONE, 2013).
“Also recorded” adds a separate entry of the source. Where two headings read alike, the source gives them in different places. Values belong to the compound of their own block, whether it stands above or below them.

Assays:
[1] = test system: T1, KCa1.1; experiment: Whole-cell patch-clamp of KCa1.1 in U251 glioblastoma cells; assay type: cell-based, human
T1 construct: KCa1.1 in human U251 glioblastoma cells; endogenous in cells; host or cells: U251 glioblastoma cells

[2] = target: T2, hKv1.2 (Homo sapiens, UniProt P16389); experiment: Whole-cell patch-clamp of cloned hKv1.2; assay type: cell-based
T2 construct: expressed in transfected cells; host or cells: B82 murine fibroblasts (Methods)
T2 sequence (P16389 whole entry): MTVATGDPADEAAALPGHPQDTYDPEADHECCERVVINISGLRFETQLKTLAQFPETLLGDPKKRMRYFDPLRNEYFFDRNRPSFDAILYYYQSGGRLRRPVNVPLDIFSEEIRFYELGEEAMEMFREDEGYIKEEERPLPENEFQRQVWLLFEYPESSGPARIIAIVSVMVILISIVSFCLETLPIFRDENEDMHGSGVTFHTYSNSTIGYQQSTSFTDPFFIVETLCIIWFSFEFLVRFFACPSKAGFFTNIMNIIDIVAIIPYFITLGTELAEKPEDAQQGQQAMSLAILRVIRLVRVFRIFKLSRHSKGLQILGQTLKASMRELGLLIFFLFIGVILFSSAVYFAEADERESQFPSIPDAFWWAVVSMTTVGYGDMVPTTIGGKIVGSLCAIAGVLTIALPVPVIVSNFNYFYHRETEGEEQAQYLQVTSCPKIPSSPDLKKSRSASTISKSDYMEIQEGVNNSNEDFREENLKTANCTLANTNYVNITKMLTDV

[3] = test system: non-selective cation channels; details: previously shown; no reference given; read-out: reported EC50, non-selective cation channels; cited from earlier work
[4] = test system: mixed KCa3.1 and KCa2.3 currents in PCAEC; experiment: Whole-cell patch-clamp of KCa currents in porcine coronary artery endothelial cells; assay type: cell-based
[5] = test system: calcium-activated chloride channels; details: previously shown; no reference given; read-out: reported EC50, calcium-activated chloride channels; cited from earlier work
[6] = test system: T3, hERG channels; experiment: Whole-cell patch-clamp of hERG tail currents in HEK293 cells; assay type: cell-based, human; details: 13b 1 µM; caffeic acid, flufenamic acid 10 µM (Table S1)
T3 construct: expressed in transfected cells; gift of Craig January, University of Wisconsin

[7] = test system: T4, hERG; experiment: as above; assay type: cell-based, human; details: human, HEK293 cells expressing hERG, pH 7.4, hERG
T4 construct: expressed in transfected cells; gift of Craig January, University of Wisconsin

[8] = target: T5, hKCa2.3 (Homo sapiens, UniProt Q9UGI6); experiment: Whole-cell patch-clamp of hKCa2.3 in COS7 cells; assay type: cell-based
T5 construct: expressed in transfected cells; host or cells: COS7
T5 sequence (Q9UGI6 whole entry): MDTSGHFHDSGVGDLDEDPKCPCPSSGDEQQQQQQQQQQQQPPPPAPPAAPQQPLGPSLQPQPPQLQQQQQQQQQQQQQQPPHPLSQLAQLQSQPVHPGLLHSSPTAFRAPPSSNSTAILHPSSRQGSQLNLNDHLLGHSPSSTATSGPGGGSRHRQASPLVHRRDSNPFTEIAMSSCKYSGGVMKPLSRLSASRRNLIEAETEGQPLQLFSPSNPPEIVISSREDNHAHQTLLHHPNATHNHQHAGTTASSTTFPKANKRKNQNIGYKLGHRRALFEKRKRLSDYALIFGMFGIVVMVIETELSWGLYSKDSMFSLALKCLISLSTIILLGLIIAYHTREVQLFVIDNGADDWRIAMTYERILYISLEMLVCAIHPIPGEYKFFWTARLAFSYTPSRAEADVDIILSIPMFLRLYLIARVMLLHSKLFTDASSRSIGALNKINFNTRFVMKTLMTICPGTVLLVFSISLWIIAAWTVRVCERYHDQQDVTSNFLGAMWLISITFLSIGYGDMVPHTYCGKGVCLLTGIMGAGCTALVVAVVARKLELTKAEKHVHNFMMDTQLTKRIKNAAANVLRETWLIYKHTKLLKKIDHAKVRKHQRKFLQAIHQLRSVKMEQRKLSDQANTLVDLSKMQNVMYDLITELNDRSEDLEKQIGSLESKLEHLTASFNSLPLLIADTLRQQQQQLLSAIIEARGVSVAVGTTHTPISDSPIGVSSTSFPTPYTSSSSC

[9] = target: T6, KCa3.1 channels in 3T3 fibroblasts (Mus musculus, UniProt O89109); experiment: Whole-cell patch-clamp of KCa3.1 currents in 3T3 fibroblasts; assay type: cell-based; details: for remaining activity at 1 µM: compound 1 µM, read-out: % of control at 1 µM; for KCa3.1 blocking effect (in words): concentrations up to 50 µM as in Table 1
T6 construct: KCa3.1 channels in 3T3 fibroblasts; endogenous in cells; host or cells: 3T3-L1 mouse embryonic fibroblasts

[10] = test system: 3T3 fibroblasts; experiment: Cell proliferation assay (Janus B Green staining); assay type: cell-based, mouse
Procedure: Cell proliferation was spectrophotometrically assessed as described previously with some modifications. Briefly, 3T3 fibroblasts (1500 cells/well) were seeded in 96-well plates (TPP. Switzerland), cultured in DMEM containing 10% FCS (Lonza, Switzerland) with 13b or vehicle (DMSO), and formalin-fixed at days 0,1,2 and 3. To exclude the possibility that DMSO as vehicle affected the cell viability per se, final DMSO concentrations were the same for each concentration of 13b and the controls. Fixed cells were stained for 5 minutes with 50 ul/well of 0.3% Janus B Green dye (Acros Organics, Belgium) at room temperature with constant stirring followed by a de-staining step with water. Dye was eluted with 200 ul/well of 0.5 M HCl of hydrochloric acid and top-read measurements of absorbance were performed in a microplate reader (Sinergy HT, Biotek, USA) at 595 nm.

[11] = test system: porcine coronary artery rings; experiment: Isometric myography: 5-HT-induced contractions; details: 13b 0.5 µM
Procedure: (§1) Myography on porcine coronary artery rings was performed as described in detail previously, [30]. In brief, left anterior descending arteries or posterior descending arteries were cut into rings (3 mm long) and rings were mounted onto a isometric force transducer (Pioden UF1, Graham Bell House, Canterbury, UK). The organ bath contained a 5 ml Krebs buffer maintained at 37°C and gassed with 95% O2/5% CO2. The composition of the Krebs buffer was as follows (in mM): NaCl 120, NaHCO3 24.5, CaCl2 2.4, KCl 4.7, MgSO4 1.2, KH2PO4 1 and glucose 5.6, pH 7.4. Each ring was passively stretched to an initial tension of 1 gr (10 mN). Changes in force were monitored and recorded on a computer using a Mac Lab System/8e program (AD Instruments Inc, Milford, Ma, USA), and digitalized at a sample rate of 0.5 sec.
(§2) To measure specifically endothelium-derived hyperpolarization-mediated vasorelaxation (EDH), the NO-synthase blocker, Nω-nitro-L-arginine (L-NNA, 300 µM), and the cyclooxygenase blocker, indomethacin (10 µM), were added to the buffer. Preparations were washed three times and were allowed to equilibrate for 40 min. Within this period, the incubation medium was renewed every 20 min. […] Ten min later, bradykinin (1 µM) was added for another 10 min, followed by washout (over at least 10 min). This protocol was repeated (2nd stimulation). Thereafter, we performed a 3rd round of pre-contraction and vasorelaxation, but using the vasospasmic thromboxane analogue U46619 (0.2 µM) as vasocontracting agent. At the end of the experiments, rings were allowed to contract maximally in a KCl (60 mM) buffer for 10 min followed by addition of the compounds. Finally, sodium nitroprusside (10 µM) was added to achieve maximal endothelium-independent vasorelaxation.
(§3) DMSO as the vehicle had no vasoactive effect per se on the tissue. Other compounds were dissolved in Milli-Q water.
(§4) For data analysis, we determined absolute increases in force to 5-HT, U46619, or 60 mM KCl. Bradykinin-induced relaxations were determined as % change of pre-contraction to either vasocontracting compound and relative to the fully relaxed state (in the absence of the vasocontracting agent).

[12] = test system: porcine coronary artery rings; experiment: Isometric myography: U46619-induced contractions; details: 13b 0.5 µM
Procedure: as §1, §2, §3, §4

[13] = target: T5, hKCa2.3; experiment: Inside-out single-channel experiments on hKCa2.3; assay type: biochemical
[14] = test system: inward-rectifying K+ current (Kir) in U251 glioblastoma cells; experiment: Whole-cell patch-clamp of native inward-rectifying K+ current in U251 cells; assay type: cell-based, human; details: 1 µM, at −100 mV, n = 5
[15] = target: T7, cloned human KCa3.1 channel (Homo sapiens, UniProt O15554); experiment: Inside-out patch recordings from hKCa3.1-overexpressing HEK293 cells; assay type: biochemical; details: inside-out patches
T7 construct: expressed in transfected cells; gift of Khaled Houamed, University of Chicago

[16] = test system: T8, hKv1.3; experiment: Whole-cell patch-clamp of cloned hKv1.3; assay type: cell-based, human
T8 construct: expressed in transfected cells

[17] = test system: porcine coronary artery rings; experiment: Isometric myography: contractions to 60 mM K+; details: 13b 0.5 µM, SKA-31 1 µM, alone or combined
Procedure: as §1
as §2, with “vasorelaxation. […]” for “vasorelaxation.”
as §4

[18] = test system: porcine coronary artery rings; experiment: Isometric myography: bradykinin-induced (EDH) relaxation; details: 13b 0.5 µM
Procedure: as §1, §2, §3, §4

[19] = test system: porcine coronary artery rings; experiment: Isometric myography: endothelium-independent relaxation to sodium nitroprusside; details: pre-contracted by 60 mM K+; 13b 0.5 µM, SKA-31 1 µM, alone or combined
Procedure: as §1
as §2, with “vasorelaxation. […]” for “vasorelaxation.”
as §4

[20] = KCa3.1 whole-cell current, 3T3 fibroblasts, 1 µM free Ca2+ in pipette, mean ± SEM, n ≥3
[21] = whole-cell, 3T3 fibroblasts, read-out: EC50 of KCa3.1 inhibition
[22] = 1 µM 5-HT, SKA-31 1 µM, alone or combined
[23] = 1 µM bradykinin, SKA-31 1 µM, alone or combined

- hKv1.2 blocking effect (in words) ([2]; flufenamic acid and caffeic acid 10 and 50 µM, 13c 1 µM): did not block
- remaining activity at 10 µM ([2]; hKv1.2, compound 10 µM, read-out: % of control at 10 µM): 106 ± 5%
- remaining activity at 50 µM ([2]; hKv1.2, compound 50 µM, read-out: % of control at 50 µM): 100 ± 2%
- remaining activity at 10 µM ([8]; COS-7, hKCa2.3, compound 10 µM, mean ± SEM, n ≥ 3, read-out: % of control at 10 µM): 104 ± 5%
- remaining activity at 50 µM ([8]; COS-7, hKCa2.3, compound 50 µM, mean ± SEM, n ≥ 3, read-out: % of control at 50 µM): 100 ± 2%
- KCa2.3 blocking effect (in words) ([8]; micromolar concentrations): no blocking effects
- remaining activity at 1 µM [9, 20]: 65 ± 4%
- remaining activity at 10 µM ([9]; KCa3.1 whole-cell current, 3T3 fibroblasts, 1 µM free Ca2+ in pipette, compound 10 µM, mean ± SEM, n ≥3, read-out: % of control at 10 µM): 13 ± 5%
- remaining activity at 50 µM ([9]; KCa3.1 whole-cell current, 3T3 fibroblasts, 1 µM free Ca2+ in pipette, compound 50 µM, mean ± SEM, n ≥3, read-out: % of control at 50 µM): 2.5 ± 0.3%
- remaining activity at 10 µM ([9]; read-out: KCa3.1 current blocked, % of control): 6 ± 1%
- KCa3.1 blocking effect (in words) ([9]; whole-cell, 3T3 fibroblasts): Complete inhibition
- EC50 [9, 21]: 1600 nM
SMILES: O=C(O)c1ccccc1Nc1cccc(C(F)(F)F)c1 [Flufenamic Acid, 2-(3-(trifluoromethyl)phenylamino) benzoic acid, reference compound]
- potentiation of KCa1.1 ([1]; 10 µM): 2.7 fold
- % of control at 10 µM ([1]; hKCa1.1, compound 10 µM): 270 ± 106%
- EC50 [3]: ~5000 nM
- mixed KCa3.1/KCa2.3 current, % of control ([4]; 10 µM, n = 2): 25±3%
- mixed KCa3.1/KCa2.3 current, % of control ([4]; 50 µM, n = 1): 3%
- EC50 [5]: ~30000 nM
- hERG effect (in words) [6]: slight potentiation
- activity at 10 µM ([7]; compound 10 µM, read-out: % of control at 10 µM): 116 ± 15%

- inhibition at 0.1 µM ([2]; 100 nM): 19%
- remaining activity at 1 µM ([2]; hKv1.2, compound 1 µM, read-out: % of control at 1 µM): 11 ± 2%
- EC50 ([2]; read-out: EC50 of hKv1.2 block): 550 ± 10 nM
- EC50 ([13]; inside-out single channel experiments, read-out: EC50 of hKCa2.3 inhibition): 0.241 ± 0.129 nM
- Hill coefficient ([13]; inside-out, hKCa2.3): ~1
- EC50 ([15]; HEK293, 0.5 µM free Ca2+, read-out: EC50 of hKCa3.1 inhibition): 14 nM
- Hill coefficient ([15]; hKCa3.1): ~1
- remaining activity at 1 µM ([8]; COS-7, hKCa2.3, compound 1 µM, mean ± SEM, n ≥ 3, read-out: % of control at 1 µM): 4 ± 2%
- Hill coefficient ([8]; hKCa2.3 whole-cell): ~1
- EC50 ([8]; whole-cell, COS7 cells, 1 µM free Ca2+, read-out: EC50 of hKCa2.3 inhibition): 0.36 nM
- remaining activity at 1 µM [9, 20]: 4 ± 1%
- EC50 ([9]; KCa3.1 whole-cell, 1 µM SKA-31, read-out: EC50 to suppress the SKA-31-induced current): 161 ± 121 nM
- Hill coefficient ([9]; KCa3.1 whole-cell, 3T3 fibroblasts): ~1
- KCa3.1 blocking effect (in words) ([9]; whole-cell, 3T3 fibroblasts): Complete inhibition
- EC50 [9, 21]: 19 nM
SMILES: O=C(OCc1cc(COC(=O)c2ccc(O)c(F)c2)cc(COC(=O)c2ccc(O)c(F)c2)c1)c1ccc(O)c(F)c1 [Compound 13b, [3,5-bis[(3-fluoro-4-hydroxy-benzoyl)oxymethyl]phenyl]methyl 3-fluoro-4-hydroxy-benzoate]
- change of proliferation vs. vehicle ([10]; 0.5 µM, day 3): −23%
- change of proliferation vs. vehicle ([10]; 2 µM, day 3): –20%
- cytotoxicity (in words) ([10]; cultured 3T3 fibroblasts): not cytotoxic; also recorded: non-toxic
- inhibition (reduction) of cell proliferation ([10]; day 3, 0.5 and 2 µM): 20%
- KCa1.1 effect (in words) ([1]; U251 glioblastoma cells, 13b 1 µM, caffeic acid 10 µM): not blocked
- % of control at 1 µM ([1]; hKCa1.1, compound 1 µM): 103 ± 3%
- Δg, 1st stimulation [11, 22]: 0.7 ± 0.1 g
- Δg, 2nd stimulation [11, 22]: 0.7 ± 0.1 g
- change of amplitude of 5-HT contraction vs. vehicle, 1st stimulation [11]: +74%
- change of amplitude of 5-HT contraction vs. vehicle, 2nd stimulation [11]: +90%
- Δg ([12]; 0.2 µM U46619, SKA-31 1 µM, alone or combined): 2.8 ± 0.2 g
- change of U46619 contraction vs. vehicle ([12]; alone or with SKA-31 1 µM): +29%
- Kir current, % of control [14]: 98±2%
- block of current potentiated by 1 µM SKA-31 (in words) ([4]; 1 µM 13b): almost fully blocked
- KCa current, % of control ([4]; whole-cell, compound 1 µM): 14±7%
- hKv1.3 blocking effect (in words) ([16]; concentration of 10 µM as printed): not inhibited; also recorded: did not block
- % of control at 1 µM ([16]; hKv1.3, compound 1 µM): 96.4 ± 0.2%
- hERG effect (in words) [6]: not blocked; also recorded: did not block
- activity at 1 µM ([7]; compound 1 µM, read-out: % of control at 1 µM): 94 ± 3%
- Δg, contraction to 60 mM K+ [17]: 3.1 ± 0.3 g
- % relaxation, 5-HT-precontraction [18, 23]: 24±2%
- % relaxation, U46619-precontraction [18, 23]: −1±1%
- continued contraction of U46619-precontracted rings with bradykinin [18]: +1 % contraction
- % relaxation to 10 µM SNP [19]: 84±4%
